According to patent publication US8575091B1, “Amylin analogues and pharmaceutical compositions thereof” (Novo Nordisk A/S, priority 2012, dated 2013):
Numbered stars: 1 amine (or outer) side, 2 acyl side, 3 side chain; on linkers, the order of the positions; unused ones are H or OH. Bridge positions count the residues as written; N and C are the ends. Side chains are listed from the residue outwards. Peptide text beside a SMILES is read from it. * marks the point of attachment. C20 diacid = O=C(O)CCCCCCCCCCCCCCCCCCC(=O)*; γGlu = O=C(O)[C@H](CCC(=O)[*:2])N[*:1]; AEEA = NCCOCCOCC(=O)O

How the values were obtained:
rat amylin receptor = target: T1, rat amylin receptor (Rattus norvegicus, UniProt P32214+Q9JJ73); assay: Assay (VI) binding to the rat amylin receptor; conditions: rCTR bind IC50 divided by rAmylin-R bind IC50
T1 construct: expressed in transfected cells; host or cells: BHK tk'ts 13 (transient, FuGENE 6), membranes
T1 sequence (P32214 25-479 isoform P32214-2 limits assumed): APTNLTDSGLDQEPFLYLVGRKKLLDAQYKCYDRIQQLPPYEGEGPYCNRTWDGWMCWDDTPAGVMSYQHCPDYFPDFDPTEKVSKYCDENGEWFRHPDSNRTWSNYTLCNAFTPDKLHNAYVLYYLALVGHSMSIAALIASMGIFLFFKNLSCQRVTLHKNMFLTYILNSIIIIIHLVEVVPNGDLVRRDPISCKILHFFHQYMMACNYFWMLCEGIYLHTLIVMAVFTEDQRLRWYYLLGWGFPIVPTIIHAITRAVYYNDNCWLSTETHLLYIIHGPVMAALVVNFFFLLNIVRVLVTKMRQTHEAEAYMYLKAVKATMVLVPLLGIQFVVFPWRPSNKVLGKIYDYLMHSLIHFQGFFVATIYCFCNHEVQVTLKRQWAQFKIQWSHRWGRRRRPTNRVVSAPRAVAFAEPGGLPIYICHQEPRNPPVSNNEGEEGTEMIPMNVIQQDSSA
T1 sequence (Q9JJ73 23-147 partner): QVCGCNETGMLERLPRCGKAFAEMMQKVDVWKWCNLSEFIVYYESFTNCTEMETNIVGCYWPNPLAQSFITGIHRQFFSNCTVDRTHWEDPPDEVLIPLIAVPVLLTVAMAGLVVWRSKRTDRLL
Experimental: Assay (VI)—Determination of the Binding to the Rat Amylin Receptor
The assay was performed as described above (Assay (V)—Determination of binding to the human amylin receptor) with the exception that we used membranes prepared from BHK tk'ts 13 cells that were transiently transfected with the rat calcitonin receptor rat RAMP 3 at an equimolar ratio […]. The BHK tk'ts 13 cells were transiently transfected with rat calcitonin receptor using FuGENE® 6 (Roche), according to the manufacturer's recommendations. Cells were grown in DMEM with 10% FBS and 1% Pen/Strep. Approximately 48 hours after transfection, the cells were harvested and membranes were prepared.

[1] = target: T2, human amylin receptor (amylin 3(a) receptor: human calcitonin receptor + RAMP-3) (Homo sapiens, UniProt O60896+P30988); assay: Assay (II)a functional assay, human amylin receptor (CRE luciferase, BHK cells); assay type: cell-based
T2 construct: expressed in transfected cells
T2 sequence (P30988 25-474): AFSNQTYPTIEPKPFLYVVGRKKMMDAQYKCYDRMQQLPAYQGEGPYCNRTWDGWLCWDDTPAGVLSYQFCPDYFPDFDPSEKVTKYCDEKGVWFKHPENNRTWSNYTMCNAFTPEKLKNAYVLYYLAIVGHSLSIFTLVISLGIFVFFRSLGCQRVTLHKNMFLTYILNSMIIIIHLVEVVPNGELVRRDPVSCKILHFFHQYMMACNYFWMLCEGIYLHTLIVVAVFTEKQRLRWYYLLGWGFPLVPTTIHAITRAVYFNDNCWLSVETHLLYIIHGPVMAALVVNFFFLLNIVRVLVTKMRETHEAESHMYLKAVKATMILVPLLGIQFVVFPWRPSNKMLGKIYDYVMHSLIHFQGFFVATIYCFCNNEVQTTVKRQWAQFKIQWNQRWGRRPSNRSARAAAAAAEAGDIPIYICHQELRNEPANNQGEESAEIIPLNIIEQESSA
T2 sequence (O60896 24-148 partner): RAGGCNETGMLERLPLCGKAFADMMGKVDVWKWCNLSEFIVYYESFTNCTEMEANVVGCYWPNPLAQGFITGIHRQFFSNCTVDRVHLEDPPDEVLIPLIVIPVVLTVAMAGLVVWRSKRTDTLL

human amylin receptor = target: T3, human amylin receptor (Homo sapiens, UniProt O60896+P30988); assay: Assay (V) binding to the human amylin receptor (SPA, 125I-rat amylin); conditions: human binding ratio, included for comparison
T3 construct: expressed in transfected cells
T3 sequence (P30988 25-474): T2 sequence (P30988 25-474)
T3 sequence (O60896 24-148 partner): T2 sequence (O60896 24-148 partner)
Procedure, shortened: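 IC50, taken as receptor affinity, came from one-site binding competition analysis of scintillation proximity counts. Amylin 3(a)/CRE-luc cell membranes (35 ng/μL final) were mixed with SPA beads (0.05 mg/well) in 50 mM Hepes pH 7.4 containing CaCl2, MgCl2, 0.1% OA and 0.02% Tween20.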

[2] = Table 6, human functional selectivity (hCTR EC50 / hAmylin-R EC50)

CC[C@H](C)[C@H](NC(=O)[C@@H]1CCCN1C(=O)CNC(=O)[C@H](Cc1ccccc1)NC(=O)[C@H](CC(N)=O)NC(=O)[C@@H]1CCCN1C(=O)[C@H](CO)NC(=O)[C@H](CO)NC(=O)[C@H](Cc1c[nH]cn1)NC(=O)[C@H](CCCNC(=N)N)NC(=O)[C@H](CC(C)C)NC(=O)[C@H](Cc1ccccc1)NC(=O)[C@H](CCC(=O)O)NC(=O)[C@H](C)NC(=O)[C@H](CC(C)C)NC(=O)[C@H](CCCNC(=N)N)NC(=O)[C@H](CCC(N)=O)NC(=O)[C@@H](NC(=O)[C@H](C)NC(=O)[C@@H]1CSSC[C@H](NC(=O)[C@H](CCCCN)NC(=O)CC[C@H](NC(=O)CCCCCCCCCCCCCCCCCCC(=O)O)C(=O)O)C(=O)N[C@@H](CC(N)=O)C(=O)N[C@@H]([C@@H](C)O)C(=O)N[C@@H](C)C(=O)N[C@@H]([C@@H](C)O)C(=O)N1)[C@@H](C)O)C(=O)N[C@@H](CC(C)C)C(=O)N1CCC[C@H]1C(=O)N1CCC[C@H]1C(=O)N[C@H](C(=O)N[C@@H](CC(N)=O)C(=O)N[C@H](C(=O)NCC(=O)N[C@@H](CO)C(=O)N[C@@H](CC(N)=O)C(=O)N[C@H](C(=O)N1CCC[C@H]1C(N)=O)[C@@H](C)O)C(C)C)[C@@H](C)O [Example 4] ({C20 diacid-γGlu}-KCNTATCATQRLAEFLRHSSPNFGPILPPTNVGSNTP-NH2; disulfide 2-7)
Ratio rCT/rAmylin binding (rat amylin receptor): 3.1 | Ratio hCT/hAmylin funct. [1, 2]: 1.2 | Ratio hCT/hAmylin funct. ([1]; hCTR funct. EC50 divided by hAmylin-R funct. EC50): 1.2 | Ratio hCT/hAmylin binding (human amylin receptor): 2.1

CC[C@H](C)[C@H](NC(=O)[C@H](C)NC(=O)CNC(=O)[C@H](Cc1ccccc1)NC(=O)[C@H](CC(N)=O)NC(=O)[C@@H]1CCCN1C(=O)[C@H](CO)NC(=O)[C@H](CO)NC(=O)[C@H](Cc1c[nH]cn1)NC(=O)[C@H](CCCNC(=N)N)NC(=O)[C@H](CC(C)C)NC(=O)[C@H](Cc1ccccc1)NC(=O)[C@H](CCC(=O)O)NC(=O)[C@H](C)NC(=O)[C@H](CC(C)C)NC(=O)[C@H](CCCNC(=N)N)NC(=O)[C@H](CCC(N)=O)NC(=O)[C@@H](NC(=O)[C@H](C)NC(=O)[C@@H]1CSSC[C@H](NC(=O)[C@H](CCCCN)NC(=O)COCCOCCNC(=O)COCCOCCNC(=O)CC[C@H](NC(=O)CCCCCCCCCCCCCCCCCCC(=O)O)C(=O)O)C(=O)N[C@@H](CC(N)=O)C(=O)N[C@@H]([C@@H](C)O)C(=O)N[C@@H](C)C(=O)N[C@@H]([C@@H](C)O)C(=O)N1)[C@@H](C)O)C(=O)N1CCC[C@H]1C(=O)N[C@@H](CO)C(=O)N[C@@H](CO)C(=O)N[C@H](C(=O)N[C@@H](CC(N)=O)C(=O)N[C@H](C(=O)NCC(=O)N[C@@H](CO)C(=O)N[C@@H](CC(N)=O)C(=O)N[C@H](C(=O)N1CCC[C@H]1C(N)=O)[C@@H](C)O)C(C)C)[C@@H](C)O [Example 20] ({C20 diacid-γGlu-AEEA-AEEA}-KCNTATCATQRLAEFLRHSSPNFGAIPSSTNVGSNTP-NH2; disulfide 2-7)
Ratio rCT/rAmylin binding (rat amylin receptor): 6.4 | Ratio hCT/hAmylin funct. [1, 2]: 3.6 | Ratio hCT/hAmylin binding (human amylin receptor): 3.6

CC[C@H](C)[C@H](NC(=O)[C@H](C)NC(=O)CNC(=O)[C@H](Cc1ccccc1)NC(=O)[C@H](CC(N)=O)NC(=O)[C@@H]1CCCN1C(=O)[C@H](CO)NC(=O)[C@H](CO)NC(=O)[C@H](Cc1c[nH]cn1)NC(=O)[C@H](CCCNC(=N)N)NC(=O)[C@H](CC(C)C)NC(=O)[C@H](Cc1ccccc1)NC(=O)[C@H](Cc1c[nH]cn1)NC(=O)[C@H](C)NC(=O)[C@H](CC(C)C)NC(=O)[C@H](CCCNC(=N)N)NC(=O)[C@H](CCC(N)=O)NC(=O)[C@@H](NC(=O)[C@H](C)NC(=O)[C@@H]1CSSC[C@H](NC(=O)[C@@H](N)CCCCNC(=O)CC[C@H](NC(=O)CCCCCCCCCCCCCCCCCCC(=O)O)C(=O)O)C(=O)N[C@@H](CC(N)=O)C(=O)N[C@@H]([C@@H](C)O)C(=O)N[C@@H](C)C(=O)N[C@@H]([C@@H](C)O)C(=O)N1)[C@@H](C)O)C(=O)N1CCC[C@H]1C(=O)N[C@@H](CO)C(=O)N[C@@H](CO)C(=O)N[C@H](C(=O)N[C@@H](CC(N)=O)C(=O)N[C@H](C(=O)NCC(=O)N1CCC[C@H]1C(=O)N[C@@H](CC(N)=O)C(=O)N[C@H](C(=O)N1CCC[C@H]1C(N)=O)[C@@H](C)O)C(C)C)[C@@H](C)O [Example 115] (H-K([γGlu-C20 diacid])CNTATCATQRLAHFLRHSSPNFGAIPSSTNVGPNTP-NH2; disulfide 2-7 (inferred); N-terminus and C-terminus assumed)
Ratio rCT/rAmylin binding (rat amylin receptor): 3.0 | Ratio hCT/hAmylin funct. [1, 2]: 0.8 | Ratio hCT/hAmylin binding (human amylin receptor): 1.2

CC[C@H](C)[C@H](NC(=O)[C@H](C)NC(=O)CNC(=O)[C@H](Cc1ccccc1)NC(=O)[C@H](CC(N)=O)NC(=O)[C@@H]1CCCN1C(=O)[C@H](CO)NC(=O)[C@H](CO)NC(=O)[C@H](Cc1c[nH]cn1)NC(=O)[C@H](CCCNC(=N)N)NC(=O)[C@H](CC(C)C)NC(=O)[C@H](Cc1ccccc1)NC(=O)[C@H](CC(=O)O)NC(=O)[C@H](C)NC(=O)[C@H](CC(C)C)NC(=O)[C@H](CCCNC(=N)N)NC(=O)[C@H](CCC(N)=O)NC(=O)[C@@H](NC(=O)[C@H](C)NC(=O)[C@@H]1CSSC[C@H](NC(=O)[C@@H](N)CCCCNC(=O)CC[C@H](NC(=O)CCCCCCCCCCCCCCCCCCC(=O)O)C(=O)O)C(=O)N[C@@H](CC(N)=O)C(=O)N[C@@H]([C@@H](C)O)C(=O)N[C@@H](C)C(=O)N[C@@H]([C@@H](C)O)C(=O)N1)[C@@H](C)O)C(=O)N1CCC[C@H]1C(=O)N[C@@H](CO)C(=O)N[C@@H](CO)C(=O)N[C@H](C(=O)N[C@@H](CC(N)=O)C(=O)N[C@H](C(=O)NCC(=O)N1CCC[C@H]1C(=O)N[C@@H](CCC(=O)O)C(=O)N[C@H](C(=O)N[C@@H](Cc1ccc(O)cc1)C(N)=O)[C@@H](C)O)C(C)C)[C@@H](C)O [Example 123] (H-K([γGlu-C20 diacid])CNTATCATQRLADFLRHSSPNFGAIPSSTNVGPETY-NH2; disulfide 2-7 (inferred); N-terminus and C-terminus assumed)
Ratio rCT/rAmylin binding (rat amylin receptor; Table 7b): 62.0 | Ratio rCT/rAmylin binding (rat amylin receptor): 62.0 | Ratio hCT/hAmylin funct. [1, 2]: 3.9
